Data: patent US20180296530A1, “METHOD FOR TREATING ATOPIC DERMATITIS” (priority 2015, published 2018)

Legend:
serum total IgE = assay: Example 5: serum IgE in DNCB-induced AD mouse model; format: in vivo, Balb/c mice; conditions: 5% melatonin treatment compared with the DNCB-stimulated group, p=0.02, Day 20
Protocol: (§1) The protocol for establishing an AD mouse model in this Example was modified from those described previously. Briefly, referring to FIG. 4, DNCB-induced AD mouse model was prepared by the repeated applications of 20 μL of 1% DNCB in acetone/olive oil (4:1) to the outer and inner surfaces of mouse ears and 100 μL of the same solution to the shaved back skin once on days 1, 2, and 3. Mice of Control group were treated with the identical volumes of vehicle.
(§2) The DNCB-sensitized mice were randomly assigned to one of three groups: DNCB (Positive control), DNCB+3% topical melatonin (Treatment: low-dose), DNCB+5% topical melatonin (Treatment: high-dose). Each group (including Control group) consisted of 5 mice. From days 9 to 19, sensitized mice were challenged by applying 0.5% DNCB to the skin surfaces. For the two groups treated with topical melatonin groups, 0.3 mg of topical melatonin ointment (3% or 5% melatonin in Vaseline) was given together with DNCB during the challenge period. […]
(§3) Blood and dorsal skin of each mouse were collected on the last day of the experiment (Day 20) and stored at −80° C. until use. Serum IgE levels were measured using the ImmunoCAP fluorescence enzyme immunoassay (Phadia AB, Sweden) according to the manufacturer's instructions. The dorsal skin mRNA expression of the cytokines IL-4, IL-13, and IL-17 were measured by RT-PCR.

IL-17 = assay: Example 5: dorsal skin IL-17 mRNA by RT-PCR; format: in vivo, Balb/c mice
Protocol: as §1, §2, §3

COc1ccc2[nH]cc(CCNC(C)=O)c2c1 [Melatonin, melatonin]
serum total IgE level (serum total IgE): significantly reduced | skin mRNA expression of IL-17, dose-response (IL-17; 5% melatonin treatment compared with 3% melatonin treatment): decreased more | skin mRNA expression of IL-17 (IL-17; after topical melatonin treatment (3% or 5%), FIG. 11B): decreased
